This passage reports relative viability results from the supplement of paper PMC10307832.

Common to all, as to assay: relative viability (nuclei count vs DMSO), 5 days (fraction); higher = more cells survive
Compound in test [1]: C1CC2=C(C1)C=C(C=C2)OC3=NC(=C4C(=N3)N(C=N4)CC5=CC=C(C=C5)C6=CC=CC=C6)N[C@@H](CC7=CC=CC=C7)CO [QS11] + CC(C)C[C@H](NC(=O)[C@H](Cc1ccccc1)NC(=O)c1cnccn1)B(O)O [Bortezomib] (partner 0.002 µM)
The method in brief:
(§1)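 A single step with final 0.05% Triton X-100, 1% formaldehyde and 1 ug/ml Hoechst fixed the cells and stained nuclei 5 days after treatment. Lung cancer cell lines in 1536-well plates had been treated by pin tool the day after seeding with one drug alone or a fixed anchor-drug dose plus five library-drug doses (not always all listed) in √10 steps, and nuclei were counted on 4× images. Relative viability is the ratio of nuclei in treated wells to nuclei in vehicle wells, taken as the median of duplicate plates.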

Compound in test [2]: C1CC2=C(C1)C=C(C=C2)OC3=NC(=C4C(=N3)N(C=N4)CC5=CC=C(C=C5)C6=CC=CC=C6)N[C@@H](CC7=CC=CC=C7)CO [QS11] + Cc1nc(Nc2ncc(C(=O)Nc3c(C)cccc3Cl)s2)cc(N2CCN(CCO)CC2)n1 [Dasatinib] (partner 0.075 µM)
The method in brief: as §1

Compound in test [3]: C1CC2=C(C1)C=C(C=C2)OC3=NC(=C4C(=N3)N(C=N4)CC5=CC=C(C=C5)C6=CC=CC=C6)N[C@@H](CC7=CC=CC=C7)CO [QS11] + N=C(N)NC(=N)NCCc1ccccc1 [Phenformin] (partner 250 µM)
The method in brief: as §1

Compound in test [4]: CC1=C(C=C(C=C1)NC(=O)C2=CC(=CC=C2)C(C)(C)C#N)NC3=CC4=C(C=C3)N=CN(C4=O)C [AZ628] + CCNC(=O)c1noc(-c2cc(C(C)C)c(O)cc2O)c1-c1ccc(CN2CCOCC2)cc1 [Luminespib] (partner 0.01 µM)
The method in brief: as §1

In the case of LCLC-97TM1, the relative viability amounted to 0.971 in test [1] (first compound 0.253 µM); 0.611 in test [1] (first compound 0.8 µM); 0.537 in test [1] (first compound 2.53 µM); 1.18 in test [1] (first compound 8 µM); 0.777 in test [2] (first compound 0.08 µM); 0.932 in test [2] (first compound 0.253 µM). For the same cell line, the relative viability in test [2] (first compound 2.53 µM) was determined as 0.868; in test [2] (first compound 8 µM), 1.01; in test [3] (first compound 0.08 µM), 0.371; in test [3] (first compound 0.253 µM), 0.431; in test [3] (first compound 2.53 µM) it was 0.354; in test [3] (first compound 8 µM), 0.294. The relative viability in test [4] (first compound 0.08 µM) came to 0.804; in test [4] (first compound 0.253 µM), 0.659; in test [4] (first compound 0.8 µM), 0.642; in test [4] (first compound 2.53 µM) it was 0.464; in test [4] (first compound 8 µM), 0.287.
